Measured values: patent US20230382904A1, “SUBSTITUTED 4-([1,2,4]TRIAZOLO[1,5-a]PYRIDIN-6-YL)THIOPHENE-2-CARBOXAMIDE DERIVATIVES AND USE THEREOF” (The Johns Hopkins University, priority 2020, published 2023)
pIC50: −log10 of the molar value.

Columns and labels:
LZK = LZK (Homo sapiens (Human), UniProt O43283); experiment: LZK biochemical assay (TR-FRET, MKK7 phosphorylation)
Outline: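 Readout is the HTRF ratio (XL665/Eu) from an EDTA-containing detection mix of 0.4 nM Eu-anti-phospho-MKK7 (T275/S277) and 20 nM XL665-anti-His, incubated 16 h at 32° C. This followed a 90 min RT reaction of 10 nM LZK catalytic domain, 15 nM MKK7 and 15 μM ATP at pH 7.5.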

DLK = DLK (Homo sapiens (Human), UniProt Q12852); experiment: DLK biochemical assay (TR-FRET, MKK7 phosphorylation)
Sequence of DLK (Q12852 1-520): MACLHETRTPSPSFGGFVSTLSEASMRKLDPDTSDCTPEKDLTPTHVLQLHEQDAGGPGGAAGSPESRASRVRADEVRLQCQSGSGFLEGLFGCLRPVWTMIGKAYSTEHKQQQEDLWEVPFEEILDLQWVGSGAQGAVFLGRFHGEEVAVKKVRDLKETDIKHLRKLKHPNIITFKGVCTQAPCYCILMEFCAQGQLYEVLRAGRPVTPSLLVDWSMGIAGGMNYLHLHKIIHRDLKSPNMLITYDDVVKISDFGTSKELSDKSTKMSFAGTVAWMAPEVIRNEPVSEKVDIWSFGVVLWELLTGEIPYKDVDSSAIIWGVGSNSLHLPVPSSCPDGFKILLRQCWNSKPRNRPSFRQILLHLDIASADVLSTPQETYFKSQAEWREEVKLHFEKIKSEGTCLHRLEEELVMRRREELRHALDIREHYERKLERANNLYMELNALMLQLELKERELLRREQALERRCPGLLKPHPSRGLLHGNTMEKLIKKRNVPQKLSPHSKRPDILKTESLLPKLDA
Outline: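 TR-FRET ratio (665/Eu) reports MKK7 T275/S277 phosphorylation, lowered by DLK inhibition. Reaction: 60 μM ATP, 15 nM MKK7, 10 nM DLK catalytic domain, 90 min room temperature; detection incubation 16 h, 37° C. (1536-well) or 4° C. (384-well). Final concentrations.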

Sequence of LZK (O43283 168-409): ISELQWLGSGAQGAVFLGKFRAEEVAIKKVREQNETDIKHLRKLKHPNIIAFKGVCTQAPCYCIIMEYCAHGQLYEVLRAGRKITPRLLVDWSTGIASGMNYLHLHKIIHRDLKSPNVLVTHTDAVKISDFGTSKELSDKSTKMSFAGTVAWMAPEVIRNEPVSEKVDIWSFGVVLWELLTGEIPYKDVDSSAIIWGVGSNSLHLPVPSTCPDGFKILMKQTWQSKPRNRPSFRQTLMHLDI

| pIC50 (LZK) | pIC50 (DLK) | Structure (SMILES) |
| --- | --- | --- |
| 4.96 | 6.07 | COc1cc(CNC(=O)c2cc(-c3ccc4nc(N)nn4c3)cs2)ccc1F [Compound 231] |
| 4.60 | 6.70 | COc1cccc(C(C)NC(=O)c2cc(-c3ccc4nc(N)nn4c3)cs2)c1 (centres unmarked) [Compound 232] |
| 4.77 | 6.36 | Cc1cccc(C)c1NC(=O)c1cc(-c2ccc3nc(N)nn3c2)cs1 [Compound 233] |
| 4.74 | 6.33 | COc1cc(CNC(=O)c2cc(-c3ccc4nc(N)nn4c3)cs2)ccn1 [Compound 234] |
| 4.64 | 6.43 | COc1cncc(CNC(=O)c2cc(-c3ccc4nc(N)nn4c3)cs2)c1 [Compound 235] |
| < 4.52 | 6.50 | N#Cc1cccc(CNC(=O)c2cc(-c3ccc4nc(N)nn4c3)cs2)c1 [Compound 236] |
| < 4.52 | 6.57 | COc1cc(CNC(=O)c2cc(-c3ccc4nc(N)nn4c3)cs2)cc(OC)c1 [Compound 238] |
| 4.74 | 5.73 | Nc1nc2ccc(-c3csc(C(=O)NCc4ncco4)c3)cn2n1 [Compound 239] |
| 5.20 | 6.19 | Cc1csc(CNC(=O)c2cc(-c3ccc4nc(N)nn4c3)cs2)n1 [Compound 240] |
| 4.68 | 5.89 | Cn1ccnc1CNC(=O)c1cc(-c2ccc3nc(N)nn3c2)cs1 [Compound 241] |
| 4.72 | 5.74 | Cn1ccc(CNC(=O)c2cc(-c3ccc4nc(N)nn4c3)cs2)n1 [Compound 242] |
| 4.77 | 5.82 | Cc1cn(C)nc1CNC(=O)c1cc(-c2ccc3nc(N)nn3c2)cs1 [Compound 243] |
| < 4.52 | 5.89 | Nc1nc2ccc(-c3csc(C(=O)NCc4nc(C(F)(F)F)cs4)c3)cn2n1 [Compound 245] |
| 5.36 | 5.94 | Nc1nc2ccc(-c3csc(C(=O)NCc4nc5ccccc5o4)c3)cn2n1 [Compound 246] |
| 5.42 | 6.10 | COc1ccc2oc(CNC(=O)c3cc(-c4ccc5nc(N)nn5c4)cs3)nc2c1 [Compound 247] |

The remaining lines, values behind:

| Structure (SMILES) | pIC50 (LZK) | pIC50 (DLK) |
| --- | --- | --- |
| Nc1nc2ccc(-c3csc(C(=O)NCc4cccc(OCCN5CCOCC5)c4)c3)cn2n1 [Compound 207] | 4.57 | 6.33 |
| Nc1nc2ccc(-c3csc(C(=O)NCC4COCCO4)c3)cn2n1 (centres unmarked) [Compound 209] | < 4.52 | 5.60 |
| Nc1nc2ccc(-c3csc(C(=O)NCCc4ccccc4)c3)cn2n1 [Compound 211] | 4.74 | 6.01 |
| Nc1nc2ccc(-c3csc(C(=O)NCc4ccc(F)c(F)c4)c3)cn2n1 [Compound 212] | 5.02 | 5.97 |
| COc1cccc(CN(C)C(=O)c2cc(-c3ccc4nc(N)nn4c3)cs2)c1 [Compound 213] | 5.12 | 5.61 |
| CN1CCO[C@H](CNC(=O)c2cc(-c3ccc4nc(N)nn4c3)cs2)C1 [Compound 214] | 4.60 | 5.76 |
| Nc1nc2ccc(-c3csc(C(=O)NCCCc4ccccc4)c3)cn2n1 [Compound 215] | 4.52 | 6.14 |
| Nc1nc2ccc(-c3csc(C(=O)NCc4cccc(F)c4)c3)cn2n1 [Compound 216] | 5.23 | 5.94 |
| Nc1nc2ccc(-c3csc(C(=O)NCc4ccccc4Cl)c3)cn2n1 [Compound 219] | 5.51 | 6.30 |
| Nc1nc2ccc(-c3csc(C(=O)NCc4ccccc4C(F)(F)F)c3)cn2n1 [Compound 220] | 4.66 | 6.24 |
| Nc1nc2ccc(-c3csc(C(=O)NCc4c(F)cccc4F)c3)cn2n1 [Compound 221] | 5.04 | 5.91 |
| Nc1nc2ccc(-c3csc(C(=O)NCc4cc(F)cc(F)c4)c3)cn2n1 [Compound 222] | 5.24 | 5.86 |
| Cc1cccc(CNC(=O)c2cc(-c3ccc4nc(N)nn4c3)cs2)c1C [Compound 223] | 4.64 | 6.19 |
| Nc1nc2ccc(-c3csc(C(=O)Nc4ccccc4Cl)c3)cn2n1 [Compound 224] | < 4.52 | 5.78 |
| Nc1nc2ccc(-c3csc(C(=O)NCc4ccc(Cl)cc4)c3)cn2n1 [Compound 225] | 5.16 | 6.15 |
| CCOc1ccccc1CNC(=O)c1cc(-c2ccc3nc(N)nn3c2)cs1 [Compound 226] | 5.30 | 6.17 |
| Cc1ccccc1NC(=O)c1cc(-c2ccc3nc(N)nn3c2)cs1 [Compound 227] | < 4.52 | 6.08 |
| COc1ccccc1NC(=O)c1cc(-c2ccc3nc(N)nn3c2)cs1 [Compound 228] | < 4.52 | 6.32 |
| CN1CCCCC1CNC(=O)c1cc(-c2ccc3nc(N)nn3c2)cs1 (centres unmarked) [Compound 230] | 4.55 | 5.60 |
